From US20220304349A1, “Steviol Glycoside Compositions for Oral Ingestion or Use” (CARGILL, Incorporated, priority 2016, published 2022)

What was measured:
[1] = Instantaneous solubility: vigorous mixing with deionized water for 10 minutes at room temperature; type: physicochemical; details: for concentration of the rebaudioside in the instantaneously soluble 0.37% solution of the fermentation composition: room temperature water; for instantaneous solubility: water, room temperature
Protocol: The composition can optionally be expressed in terms of the concentration of one or more steviol glycoside(s). […] Clear solutions without precipitates are considered soluble. Unless indicated otherwise herein, the term “solubility” refers to “equilibrium solubility.”
Instantaneous solubility is determined by mixing steviol glycoisde with deionized water vigorously for 10 minutes at room temperature. […] Clear solutions without precipitates are considered soluble.

[2] = cited from earlier work
[3] = Equilibrium solubility: heating in deionized water at 80° C. for 15 minutes, cooling to room temperature, observation up to 4 days; type: physicochemical; parameters: key to equilibrium solubility at stated concentration: Clear solutions without precipitates are considered soluble
From the text: The composition can optionally be expressed in terms of the concentration of one or more steviol glycoside(s). […] Clear solutions without precipitates are considered soluble. Unless indicated otherwise herein, the term “solubility” refers to “equilibrium solubility.” […]

[4] = in vivo; cited from earlier work
UGT 76G1 and EUGT11 = target: T1, UGT 76G1 and EUGT11 (Stevia rebaudiana, UniProt Q6VAB4); experiment: Bioconversion of steviol glycosides with crude UGT enzyme preparations expressed in E. coli, LC-UV analysis; type: biochemical; details: UGT clone 76G1; 2 mM substrate fed, overnight at 30° C.
T1 construct: made in house; host or cells: E. coli XjB-autolysis BL21(DE3), pET30 vector, crude lysate
T1 sequence (Q6VAB4 1-458): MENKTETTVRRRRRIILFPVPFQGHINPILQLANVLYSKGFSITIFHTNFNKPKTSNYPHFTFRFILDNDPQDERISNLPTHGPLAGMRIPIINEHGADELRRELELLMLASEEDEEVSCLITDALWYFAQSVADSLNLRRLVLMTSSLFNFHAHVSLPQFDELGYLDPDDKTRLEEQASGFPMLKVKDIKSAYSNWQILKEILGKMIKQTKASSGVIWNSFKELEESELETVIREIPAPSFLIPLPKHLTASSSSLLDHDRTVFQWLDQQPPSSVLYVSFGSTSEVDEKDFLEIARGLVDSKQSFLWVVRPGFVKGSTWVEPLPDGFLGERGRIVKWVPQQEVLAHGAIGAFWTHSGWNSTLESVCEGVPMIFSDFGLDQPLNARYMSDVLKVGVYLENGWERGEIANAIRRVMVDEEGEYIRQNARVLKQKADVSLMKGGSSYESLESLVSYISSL
Protocol: The wildtype genes for UGTs EUGT11 and 76G1 are cloned individually into E. coli XjB-autolysis BL21(DE3) cells using the pET30 vector system from Novagen (EMD4 Biosciences, Madison, Wis.). All vectors use an IPTG-inducible promoter. Plasmid DNA is transformed into chemically competent cells as described by the vendor.
For in vitro assays, transformants displaying the desired antibiotic resistance are grown overnight at 30° C. in 2 mL cultures using NZCYM-media and antibiotic. The following day, the cultures are induced to a final concentration of 0.3 mM IPTG and 3 mM arabinose, and grown for 24 h at 20° C. The cells are then harvested by centrifugation at 4000 rpm for […] and resuspended in 200 μL GT-buffer (RBC Bioscience) and 3 tablets/100 ml of Complete mini, protease inhibitor (Roche), transferred to Eppendorf tubes, vortexed and frozen at −80° C. for 1.5 hour. Cells are thawed on ice, and left at room temperature for 3 minutes. When approximately half-way thawed, 15 μl of 0.14 mg/ml H2O DNase solution+30 μl 0.05M MgCl2 is added to each tube and the samples are incubated for approximately 5 minutes at room temperature. The cells are centrifuged at maximum speed for 5 minutes. One-hundred μL of supernatant (lysate) is transferred to fresh microfuge tubes, and 100 μL of glycerol is added. […]

Structure (SMILES): C=C1C[C@@]23CC[C@H]4[C@@](C)(CCC[C@@]4(C)C(=O)O[C@@H]4O[C@H](CO)[C@@H](O)[C@H](O)[C@H]4O[C@@H]4O[C@H](CO)[C@@H](O)[C@H](O)[C@H]4O)[C@@H]2CC[C@]1(O[C@@H]1O[C@H](CO)[C@@H](O)[C@H](O[C@@H]2O[C@H](CO)[C@@H](O)[C@H](O)[C@H]2O)[C@H]1O[C@@H]1O[C@H](CO)[C@@H](O)[C@H](O)[C@H]1O)C3 [Reb D, rebaudioside D]
- instantaneous solubility at stated concentration ([1]; 0.08%): insoluble
- instantaneous solubility at stated concentration ([1]; 0.10%): insoluble
- instantaneous solubility at stated concentration ([1]; 0.15%): insoluble
- instantaneous solubility at stated concentration ([1]; 0.20%): insoluble
- improvement (increase) in instantaneous solubility over the pure rebaudioside ([1]; in the presence of compounds SG101-104 (fermentation derived composition)): 75%
- concentration of the rebaudioside in the instantaneously soluble 0.37% solution of the fermentation composition [1]: 0.14%
- concentration of the rebaudioside in the instantaneously soluble 0.37% solution of the fermentation composition ([1]; listed as reb D): about 0.14%
- instantaneous solubility [1]: < 0.08%
- instantaneous solubility ([1]; listed as rebaudioside D): less than 0.08%
- amount that can be solubilized in water ([2]; 23° C.): 300 to 450 ppm
- aqueous solubility in words [2]: low solubility in water at room temperature
- equilibrium solubility at stated concentration ([3]; 0.08%): soluble
- equilibrium solubility at stated concentration ([3]; 0.10%): insoluble
- equilibrium solubility at stated concentration ([3]; 0.15%): insoluble
- equilibrium solubility at stated concentration ([3]; 0.20%): insoluble
- equilibrium solubility ([3]; after 80° C. for 15 minutes, at room temperature, up to 4 days): 0.08%
- sweetness characteristics [4]: slow onset of sweetness and was very clean
- times sweeter than sucrose (sugar) [4]: 200-220 times
- Products (UGT 76G1 and EUGT11): Rebaudioside M, various
